Test results reported in paper PMC4603778, “Encoded Library Synthesis Using Chemical Ligation and the Discovery of sEH Inhibitors from a 334-Million Member Library” (Scientific Reports, 2015).

Biological target: T1, soluble epoxide hydrolase (sEH) (Homo sapiens, UniProt P34913)
T1 construct: gene EPHX2; His-tagged sEH protein (used in the selection)
T1 sequence (P34913 1-555): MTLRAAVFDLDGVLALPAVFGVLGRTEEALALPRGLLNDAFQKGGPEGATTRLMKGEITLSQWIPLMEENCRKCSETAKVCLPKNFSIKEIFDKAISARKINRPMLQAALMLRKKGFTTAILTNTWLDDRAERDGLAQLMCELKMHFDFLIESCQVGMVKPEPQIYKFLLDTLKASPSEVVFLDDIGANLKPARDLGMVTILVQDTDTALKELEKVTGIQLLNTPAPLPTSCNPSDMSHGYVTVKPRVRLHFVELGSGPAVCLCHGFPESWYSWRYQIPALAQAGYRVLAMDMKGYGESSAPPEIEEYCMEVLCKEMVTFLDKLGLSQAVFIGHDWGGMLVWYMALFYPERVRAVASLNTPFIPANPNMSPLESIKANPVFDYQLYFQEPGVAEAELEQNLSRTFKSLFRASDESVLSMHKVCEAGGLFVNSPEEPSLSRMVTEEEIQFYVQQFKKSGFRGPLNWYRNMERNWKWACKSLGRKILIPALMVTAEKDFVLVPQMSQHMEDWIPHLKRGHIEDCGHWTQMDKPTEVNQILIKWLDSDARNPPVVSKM
Experiment: biochemical sEH inhibition assay of off-DNA compound (methyl in place of DNA linker); building-block combination enriched in affinity selection

IC50: 2 nM
SMILES: CN(CCn1cccn1)C(=O)c1ccc(-c2cccc(C(=O)NC3CCCCC3)c2)nc1 [compound 12]
